# Source: patent US11369565B2, “Amino-pyrimidine skeletal muscle modulators” (Cytokinetics, Inc., priority 2010, dated 2022)
# Test system: rabbit skeletal myofibrils (approximately 90% fast fibers)
# Experiment: Activation of fast skeletal myofibrils (PUMA coupled-enzyme ATPase assay at pCa25)
# Format: biochemical
# Settings: concentration at which the compound increased the enzymatic activity by 40%; calcium at pCa25; PM12 buffer pH 6.8
# In short: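 In pH 6.8 PM12 buffer (12 mM Pipes, 2 mM MgCl2, 1 mM DTT), ADP from myosin regenerated via pyruvate kinase/lactate dehydrogenase, with absorbance change at 340 nm from NADH oxidation as read-out. Calcium set at pCa25; Triton-washed rabbit skeletal myofibrils (about 90% fast fibres) used.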
row,Mean AC1.4,SMILES
1,B (B=1-10 uM),"CC(=O)NCc1cnc(-c2cnc(NCC3(c4ncccc4F)CCC3)nc2)s1 [N-({2-[2-({[(3-fluoro-2-pyridyl)cyclobutyl]methyl}amino)pyrimidin-5-yl]-1,3-thiazol-5-yl}methyl)acetamide]"
2,D (D=>20 uM),Clc1cccnc1C1(CNc2ncccn2)CCC1 [{[(3-chloro(2-pyridyl))cyclobutyl]methyl}pyrimidin-2-ylamine]
3,A (A=<1 uM),Fc1ccccc1-c1cnc(NC[C@]2(c3ncccc3F)C[C@H](F)C2)nc1 [{[3-fluoro-1-(3-fluoro(2-pyridyl))cyclobutyl]methyl}[5-(2-fluorophenyl)pyrimidin-2-yl]amine]
4,B (B=1-10 uM),"CC(C)(Nc1ncc(-c2nccs2)cn1)c1ncccc1Cl [[1-(3-chloro(2-pyridyl))-isopropyl](5-(1,3-thiazol-2-yl)pyrimidin-2-yl)amine]"
5,D (D=>20 uM),CC(=O)NCCNC(=O)c1cnc(NCC2(c3ncccc3F)CCC2)nc1 [N-(2-{[2-({[(3-fluoro-2-pyridyl)cyclobutyl]methyl}amino)pyrimidin-5-yl]carbonylamino}ethyl)acetamide]
6,B (B=1-10 uM),CNC(=O)c1ccc(F)c(-c2cnc(NCC3(c4ncccc4F)CCC3)nc2)c1 [{4-fluoro-3-[2-({[(3-fluoro(2-pyridyl))cyclobutyl]methyl}amino)pyrimidin-5-yl]phenyl}-N-methylcarboxamide]
7,B (B=1-10 uM),"CC(C)(Nc1ncc(-c2ncc(CNC(=O)c3c[nH]c(O)n3)s2)cn1)c1ncccc1Cl [N-{[2-(2-{[1-(3-chloro(2-pyridyl))-isopropyl]amino}pyrimidin-5-yl)(1,3-thazol-5-yl)]methyl}(2-hydroxyimidazol-4-yl)carboxamide]"
8,B (B=1-10 uM),Fc1cccnc1C1(Nc2ncc(-c3ccc4[nH]ncc4c3)cn2)CCC1 [(5-(1H-indazol-5-yl)pyrimidin-2-yl)[(3-fluoro(2-pyridyl))cyclobutyl]amine]
9,A (A=<1 uM),"CC(C)(Nc1ncc(-c2cnc3cc[nH]c3c2)cn1)c1ncccc1Cl [[1-(3-chloro(2-pyridyl))-isopropyl](5-pyrrolo[3,2-b]pyridin-6-ylpyrimidin-2-yl)amine]"
10,A (A=<1 uM),CN1CC(NC(=O)c2cccc(-c3cnc(NC[C@]4(c5ncccc5F)C[C@H](F)C4)nc3)c2)C1 [{3-[2-({[3-fluoro-1-(3-fluoro(2-pyridyl))cyclobutyl]methyl}amino)pyrimidin-5-yl]phenyl}-N-(1-methylazetidin-3-yl)carboxamide]
11,C (C=10-20 uM),COC(=O)Cc1ccc(F)c(-c2cnc(NC(C)(C)c3ncccc3F)nc2)c1 [methyl 2-[4-fluoro-3-(2-{[1-(3-fluoro(2-pyridyl))-isopropyl]amino}pyrimidin-5-yl)phenyl]acetate]
12,B (B=1-10 uM),CC(=O)N1CC(NC(=O)c2cccc(-c3cnc(NC[C@]4(c5ncccc5F)C[C@H](F)C4)nc3)c2)C1 [N-(1-acetylazetidin-3-yl){3-[2-({[3-fluoro-1-(3-fluoro(2-pyridyl))cyclobutyl]methyl}amino)pyrimidin-5-yl]phenyl}carboxamide]
13,C (C=10-20 uM),"CC(C)(Nc1ncc(-c2ncc(CNC(=O)c3cnc(O)[nH]3)s2)cn1)c1ncccc1F [N-{[2-(2-{[1-(3-fluoro(2-pyridyl))-isopropyl}amino}pyrimidin-5-yl)(1,3-thiazol-5-yl)]methyl}(2-hydroxyimidazol-5-yl)carboxamide]"
14,B (B=1-10 uM),CNC(=O)c1ccnc(-c2cnc(NC[C@]3(c4ncccc4F)C[C@H](F)C3)nc2)c1 [{2-[2-({[3-fluoro-1-(3-fluoro(2-pyridyl))cyclobutyl]methyl}amino)pyrimidin-5-yl](4-pyridyl)}-N-methylcarboxamide]
15,C (C=10-20 uM),"CC(C)(O)C(=O)NCc1cnc(-c2cnc(NC(C)(C)c3ncccc3Cl)nc2)s1 [N-{[2-(2-{[1-(3-chloro(2-pyridyl))-isopropyl}amino}pyrimidin-5-yl)(1,3-thiazol-5-yl)]methyl]-2-hydroxy-2-methylpropanamide]"
16,D (D=>20 uM),O=C(NC1(c2ccc(F)cc2)CCC1)c1cnc(NC2(c3ccc(F)cc3)CCC2)nc1C(F)(F)F [N-[(4-fluorophenyl)cyclobutyl](2-{[(4-fluorophenyl)cyclobutyl]amino}-4-(trifluoromethyl)pyrimidin-5-yl)carboxamide]

# Further lines, the compound ahead of its results:
row,SMILES,Mean AC1.4
1,Cc1nc(NC[C@]2(c3ncccc3F)C[C@H](F)C2)ncc1-c1ccc(CC(N)=O)cc1 [2-{4-[2-({[3-fluoro-1-(3-fluoro(2-pyridyl))cyclobutyl]methyl}amino)-4-methylpyrimidin-5-yl]phenyl}acetamide],B (B=1-10 uM)
2,COc1ccc(Cl)c(C(C)(C)Nc2ncc(-c3cccc(C(N)=O)c3)cn2)n1 [3-(2-{[1-(3-chloro-6-methoxy(2-pyridyl))-isopropyl]amino}pyrimidin-5-yl)benzamide],A (A=<1 uM)
3,"CC(C)(Nc1ncc(-c2nnc(C(N)=O)s2)cn1)c1ncccc1Cl [5-(2-{[1-(3-chloro(2-pyridyl))-isopropyl]amino}pyrimidin-5-yl)-1,3,4-thiadiazole-2-carboxamide]",D (D=>20 uM)
4,NC(=O)c1cnc(NC2(c3ncccc3F)CCC2)nc1C(F)(F)F [2-{[(3-fluoro(2-pyridyl))cyclobutyl]amino)-4-(trifluoromethyl)pyrimidine-5-carboxamide],D (D=>20 uM)
5,CC(C)(Nc1ncc(-c2cc(C(N)=O)n[nH]2)cn1)c1ncccc1Cl [5-(2-{[1-(3-chloro(2-pyridyl))-isopropyl]amino}pyrimidin-5-yl)pyrazole-3-carboxamide],C (C=10-20 uM)
6,CC(C)(Nc1ncc(-c2cccc(C(N)=O)c2)cn1)c1ncccc1F [3-(2-{[1-(3-fluoro(2-pyridyl))-isopropyl]amino}pyrimidin-5-yl)benzamide],B (B=1-10 uM)
7,O=C1Cc2cccc(-c3cnc(NC[C@]4(c5ncccc5F)C[C@H](F)C4)nc3)c2N1 [7-[2-({[3-fluoro-1-(3-fluoro(2-pyridyl))cyclobutyl)]methyl}amino) pyrimidin-5-yl]indolin-2-one],B (B=1-10 uM)
8,CC(C)(Nc1ncc(-c2cc(C(N)=O)ccc2F)cn1)c1ncccc1F [4-fluoro-3-(2-{[1-(3-fluoro(2-pyridyl))-isopropyl]amino}pyrimidin-5-yl)benzamide],B (B=1-10 uM)
9,COc1ncc(-c2cnc(NC(C)(C)c3ncccc3Cl)nc2)cc1C#N [5-(2-{[1-(3-chloro(2-pyridyl))-isopropyl]amino}pyrimidin-5-yl)-2-methoxypyridine-3-carbonitrile],D (D=>20 uM)
10,CC(C)(Nc1ncc(-c2cc(C(N)=O)ccc2F)cn1)c1cccc(OC(F)F)n1 [3-[2-({1-[6-(difitioromethoxy)(2-pyridyl)]-isopropyl}amino)pyrimidin-5-yl]-4-fluorobenzamide],A (A=<1 uM)
11,"NC(=O)c1cc2cnc(NCC3(c4ncccc4F)CCC3)nc2s1 [2-({[(3-fluoro-2-pyridyl)cyclobutyl]methyl}amino) thiopheno[2,3-d]pyrimidine-6-carboxamide]",C (C=10-20 uM)
12,CC(C)(CNc1ncc(-c2cncc(C#N)c2)cn1)c1ccc(F)cc1 [5-(2-{[2-(4-fluorophenyl)-2-methylpropyl]amino}pyrimidin-5-yl)pyridine-3-carbonitrile],B (B=1-10 uM)
13,CC(C)(Nc1ncc(-n2cc(C#N)cn2)cn1)c1ncccc1Cl [1-(2-{[1-(3-chloro(2-pyridyl))-isopropyl]amino}pyrimidin-5-yl)pyrazole-4-carbonitrile],D (D=>20 uM)
14,NC(=O)c1ccccc1-c1cnc(NC[C@]2(c3ncccc3F)C[C@H](F)C2)nc1 [2-[2-({[3-fluoro-1-(3-fluoro(2-pyridyl))cyclobutyl]methyl}amino)pyrimidin-5-yl]benzamide],C (C=10-20 uM)
15,O=C(O)c1ccc(O)c(-c2cnc(NC[C@]3(c4ncccc4F)C[C@H](F)C3)nc2)c1 [3-[2-({[3-fluoro-1-(3-fluoro(2-pyridyl))cyclobutyl]methyl}amino)pyrimidin-5-yl]-4-hydroxybenzoic acid],A (A=<1 uM)
16,N#Cc1ccnc(-c2cnc(NC[C@]3(c4ncccc4F)C[C@H](F)C3)nc2)c1 [2-[2-({[3-fluoro-1-(3-fluoro(2-pyridyl))cyclobutyl]methyl)amino)pyrimidin-5-yl]pyridine-4-carbonitrile],B (B=1-10 uM)
17,CC(C)(Nc1ncc(-c2cc(CC(N)=O)ccc2F)cn1)c1ncccc1F [2-[4-fluoro-3-(2-{[1-(3-fluoro(2-pyridyl))-isopropyl]amino}pyrimidin-5-yl)phenyl]acetamide],B (B=1-10 uM)
18,"O=c1cc(-c2cnc(NC[C@]3(c4ncccc4F)C[C@H](F)C3)nc2)[nH]c(=O)[nH]1 [6-[2-({[3-fluoro-1-(3-fluoro(2-pyridyl))cyclobutyl]methyl}amino)pyrimidin-5-yl]-1,3-dihydropyrimidine-2,4-dione]",B (B=1-10 uM)
19,N#Cc1ccc(F)c(-c2cnc(NCC3(c4ncccc4Cl)CCC3)nc2)c1 [3-[2-({[(3-chloro(2-pyridyl))cyclobutyl]methyl}amino)pyrimidin-5-yl]-4-fluorobenzenecarbonitrile],A (A=<1 uM)
20,O=C(O)c1cccc(-c2cnc(NC[C@]3(c4ncccc4F)C[C@H](F)C3)nc2O)c1 [3-[2-({[3-fluoro-1-(3-fluoro(2-pyridyl))cyclobutyl]methyl}amino)-4-hydroxypyrimidin-5-yl] benzoic acid],D (D=>20 uM)
21,CC(C)(Nc1ncc(-c2ccc3[nH]ncc3c2)cn1)c1ncccc1Cl [(5-(1H-indazol-5-yl)]pyrimidin-2-yl)[1-(3-chloro(2-pyridyl))-isopropyl]amine],A (A=<1 uM)
22,CC(C)(CNc1ncc(-c2cc(C(N)=O)ccc2F)cn1)c1ncccc1Cl [3-(2-{[2-(3-chloro(2-pyridyl))-2-methylpropyl]amino}pyrimidin-5-yl)-4-fluorobenzamide],A (A=<1 uM)
